Each block holds one compound with its values, some of them ahead of it.
Molecular target: T1, human PDE4B1 (Homo sapiens, UniProt Q07343)
T1 construct: host or cells: Sf9 cells
Assay: cAMP HTRF assay to determine the activity of hPDE4B1
Assay type: biochemical
Details: for inhibition at 1 µM: Percentage inhibition of PDE4B at 1 μM test concentration; for IC50: dose response measurements with eight concentrations, reported as ranges, read-out: IC50
How it was run: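 Sf9-expressed recombinant human PDE4B1 (4.8 U) in Tris-HCl/MgCl2/DTT/Tween 20 buffer pH 7.8, with cAMP at 40 nM final, 30 min at room temperature. Reaction stopped with IBMX 1 mM; remaining cAMP detected by HTRF (665/620 nm ratio). IC50 from eight-point dose-response, n=2.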

T1 sequence (Q07343 whole entry): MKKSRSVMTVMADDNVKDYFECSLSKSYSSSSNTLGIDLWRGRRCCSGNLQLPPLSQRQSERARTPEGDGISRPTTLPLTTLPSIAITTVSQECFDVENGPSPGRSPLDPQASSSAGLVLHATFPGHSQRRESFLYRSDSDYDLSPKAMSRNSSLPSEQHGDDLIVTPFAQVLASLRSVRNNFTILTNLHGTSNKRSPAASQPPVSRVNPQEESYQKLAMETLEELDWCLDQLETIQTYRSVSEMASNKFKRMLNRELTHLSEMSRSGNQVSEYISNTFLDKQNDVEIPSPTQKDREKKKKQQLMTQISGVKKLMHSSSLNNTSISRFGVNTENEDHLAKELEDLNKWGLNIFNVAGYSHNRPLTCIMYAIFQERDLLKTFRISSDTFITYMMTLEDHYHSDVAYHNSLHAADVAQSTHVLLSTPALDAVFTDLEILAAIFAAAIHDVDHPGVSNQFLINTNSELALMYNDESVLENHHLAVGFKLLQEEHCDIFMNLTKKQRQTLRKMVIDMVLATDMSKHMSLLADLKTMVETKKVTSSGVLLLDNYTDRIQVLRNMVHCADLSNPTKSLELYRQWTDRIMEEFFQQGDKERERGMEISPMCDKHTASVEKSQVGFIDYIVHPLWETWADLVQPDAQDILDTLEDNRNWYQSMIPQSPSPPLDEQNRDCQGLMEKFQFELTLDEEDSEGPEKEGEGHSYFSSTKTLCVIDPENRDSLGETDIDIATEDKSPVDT

Compound: COc1ccc(-c2nc3c(c(N4C(=O)Cc5cc(CC(=O)O)ccc54)n2)CCC3)cc1Cl [Compound No. 1-66, 2-(1-(2-(3-Chloro-4-methoxyphenyl)-6,7-dihydro-5H-cyclopenta[d]-pyrimidin-4-yl)-2-oxoindolin-5-yl)acetic acid]
inhibition at 1 µM: 61%
IC50: 100 to 1000 nM

Compound: O=C(O)c1ccc2c(c1)oc(=O)n2-c1nc(-c2ccc(Cl)s2)nc2c1CCC2 [Compound No. 1-68, 3-(2-(5-Chlorothiophen-2-yl)-6,7-dihydro-5H-cyclopenta[d]pyrimidin-4-yl)-2-oxo-2,3-dihydrobenzo[d]oxazole-6-carboxylic acid]
inhibition at 1 µM: 34%

Compound: O=C(O)c1ccc2c(c1)CC(=O)N2c1nc(-c2ccc(Cl)s2)nc2c1CCC2 [Compound No. 1-69, 1-(2-(5-Chlorothiophen-2-yl)-6,7-dihydro-5H-cyclopenta[d]pyrimidin-4-yl)-2-oxoindoline-5-carboxylic acid]
inhibition at 1 µM: 61%
IC50: 100 to 1000 nM

Compound: O=C(O)c1ccc2c(ccn2-c2nc(-c3ccc(Cl)s3)nc3c2CCC3)c1 [Compound No. 1-70, 1-(2-(5-Chlorothiophen-2-yl)-6,7-dihydro-5H-cyclopenta[d]pyrimidin-4-yl)-1H-indole-5-carboxylic acid]
inhibition at 1 µM: 61%
IC50: 100 to 1000 nM

Compound: O=C(O)Cc1ccc2c(ccn2-c2nc(-c3ccc(Cl)s3)nc3c2CCC3)c1 [Compound No. 1-71, 2-(1-(2-(5-Chlorothiophen-2-yl)-6,7-dihydro-5H-cyclopenta[d]pyrimidin-4-yl)-1H-indol-5-yl)acetic acid]
inhibition at 1 µM: 64%
IC50: 100 to 1000 nM

Compound: O=C(O)c1ccc2c(cnn2-c2nc(-c3ccc(Cl)s3)nc3c2CCC3)c1 [Compound No. 1-73, 1-(2-(5-Chlorothiophen-2-yl)-6,7-dihydro-5H-cyclopenta[d]pyrimidin-4-yl)-1H-indazole-5-carboxylic acid]
inhibition at 1 µM: 80%
IC50: 100 to 1000 nM

Compound: NC(=O)c1ccc(-c2nc3c(c(N4CCc5cc(CC(=O)O)ccc54)n2)CCC3)s1 [Compound No. 1-75, 2-(1-(2-(5-Carbamoylthiophen-2-yl)-6,7-dihydro-5H-cyclopenta[d]pyrimidin-4-yl)indolin-5-yl)acetic acid]
inhibition at 1 µM: 101%
IC50: < 100 nM

Compound: COC(=O)Cc1ccc2c(c1)CCN2c1nc(-c2ccc(Cl)s2)nc2c1CS(=O)(=O)C2 [Compound No. 1-78, Methyl 2-(1-(2-(5-chlorothiophen-2-yl)-6,6-dioxido-5,7-dihydrothieno[3,4-d]pyrimidin-4-yl)indolin-5-yl)acetate]
inhibition at 1 µM: 25%

Compound: O=C(O)Cc1ccc2c(c1)CCN2c1nc(-c2cc3ccccc3s2)nc2c1C[S+]([O-])C2 (centres unmarked) [Compound No. 1-80, 2-(1-(2-(Benzo[b]thiophen-2-yl)-6-oxido-5,7-dihydrothieno[3,4-d]pyrimidin-4-yl)indolin-5-yl)acetic acid]
inhibition at 1 µM: 108%
IC50: < 100 nM

Compound: O=C(O)Cc1ccc2c(c1)CCN2c1nc(-c2ccc3occc3c2)nc2c1C[S+]([O-])C2 (centres unmarked) [Compound No. 1-81, 2-(1-(2-(Benzofuran-5-yl)-6-oxido-5,7-dihydrothieno[3,4-d]pyrimidin-4-yl)indolin-5-yl)acetic acid]
inhibition at 1 µM: 106%
IC50: < 100 nM

Compound: COc1ccc(-c2nc3c(c(N4CCc5ccc(OCC(=O)N(C)C)cc54)n2)CS(=O)(=O)C3)cc1 [Compound No. 2-21, 2-((1-(2-(4-Methoxyphenyl)-6,6-dioxido-5,7-dihydrothieno[3,4-d]pyrimidin-4-yl)indolin-6-yl)oxy)-N,N-dimethylacetamide]
inhibition at 1 µM: 88%
IC50: < 100 nM

Compound: COc1ccc(-c2nc3c(c(N4CCc5ccc(OCC(=O)N(C)C)cc54)n2)CS(=O)(=O)C3)cc1F [Compound No. 2-37, 2-((1-(2-(3-Fluoro-4-methoxyphenyl)-6,6-dioxido-5,7-dihydrothieno[3,4-d]pyrimidin-4-yl)indolin-6-yl)oxy)-N,N-dimethylacetamide]
inhibition at 1 µM: 96%
IC50: < 100 nM

Continued, values first:

inhibition at 1 µM: 59%
IC50: 100 to 1000 nM
Compound: O=C(O)c1ccc2c(c1)CCN2c1nc(-c2ccc(Cl)s2)nc2c1CCC2 [Compound No. 1-72, 1-(2-(5-Chlorothiophen-2-yl)-6,7-dihydro-5H-cyclopenta[d]pyrimidin-4-yl)indoline-5-carboxylic acid]

inhibition at 1 µM: 62%
IC50: 100 to 1000 nM
Compound: COC(=O)COc1ccc2c(c1)N(c1nc(-c3ccc(Cl)s3)nc3c1CS(=O)(=O)C3)CC2 [Compound No. 1-77, Methyl 2-((1-(2-(5-chlorothiophen-2-yl)-6,6-dioxido-5,7-dihydrothieno[3,4-d]pyrimidin-4-yl)indolin-6-yl)oxy)acetate]

inhibition at 1 µM: 88%
IC50: 100 to 1000 nM
Compound: COC(=O)COc1ccc2c(c1)N(c1nc(-c3ccc(Cl)s3)nc3c1CCC3)CC2 [Compound No. 1-79, Methyl 2-((1-(2-(5-chlorothiophen-2-yl)-6,7-dihydro-5H-cyclopenta[d]pyrimidin-4-yl)indolin-6-yl)oxy)acetate]

inhibition at 1 µM: 100%
IC50: < 100 nM
Compound: COc1ccc(-c2nc3c(c(N4CCc5ccc(OCC(=O)N(C)C)cc54)n2)CS(=O)(=O)C3)cc1Cl [Compound No. 2-33, 2-((1-(2-(3-Chloro-4-methoxyphenyl)-6,6-dioxido-5,7-dihydrothieno[3,4-d]pyrimidin-4-yl)indolin-6-yl)oxy)-N,N-dimethylacetamide]

inhibition at 1 µM: 98%
IC50: < 100 nM
Compound: COc1ccc(-c2nc3c(c(N4CCc5ccc(OCC(=O)N(C)C)cc54)n2)C[S+]([O-])C3)cc1F (centres unmarked) [Compound No. 2-36, 2-((1-(2-(3-Fluoro-4-methoxyphenyl)-6-oxido-5,7-dihydrothieno[3,4-d]pyrimidin-4-yl)indolin-6-yl)oxy)-N,N-dimethylacetamide]

inhibition at 1 µM: 119%
IC50: < 100 nM
Compound: CN(C)C(=O)COc1ccc2c(c1)N(c1nc(-c3ccc(F)c(F)c3)nc3c1C[S+]([O-])C3)CC2 (centres unmarked) [Compound No. 2-40, 2-((1-(2-(3,4-Difluorophenyl)-6-oxido-5,7-dihydrothieno[3,4-d]pyrimidin-4-yl)indolin-6-yl)oxy)-N,N-dimethylacetamide]

inhibition at 1 µM: 85%
IC50: < 100 nM
Compound: CN(C)C(=O)COc1ccc2c(c1)N(c1nc(-c3ccc(F)c(F)c3)nc3c1CS(=O)(=O)C3)CC2 [Compound No. 2-41, 2-((1-(2-(3,4-Difluorophenyl)-6,6-dioxido-5,7-dihydrothieno[3,4-d]pyrimidin-4-yl)indolin-6-yl)oxy)-N,N-dimethylacetamide]

inhibition at 1 µM: 79%
IC50: < 100 nM
Compound: CN(C)C(=O)COc1ccc2c(c1)N(c1nc(-c3ccc(Cl)s3)nc3c1CCC3)CC2 [Compound No. 2-42, 2-((1-(2-(5-Chlorothiophen-2-yl)-6,7-dihydro-5H-cyclopenta[d]pyrimidin-4-yl)indolin-6-yl)oxy)-N,N-dimethylacetamide]

inhibition at 1 µM: 105%
IC50: < 100 nM
Compound: CN(C)C(=O)COc1ccc2c(c1)N(c1nc(-c3ccc(Cl)s3)nc3c1CS(=O)(=O)C3)CC2 [Compound No. 2-45, 2-((1-(2-(5-Chlorothiophen-2-yl)-6,6-dioxido-5,7-dihydrothieno[3,4-d]pyrimidin-4-yl)indolin-6-yl)oxy)-N,N-dimethylacetamide]

inhibition at 1 µM: 94%
IC50: < 100 nM
Compound: CN(C)C(=O)COc1ccc2c(c1)N(c1nc(-c3ccc(F)s3)nc3c1CCC3)CC2 [Compound No. 2-46, 2-((1-(2-(5-Fluorothiophen-2-yl)-6,7-dihydro-5H-cyclopenta[d]pyrimidin-4-yl)indolin-6-yl)oxy)-N,N-dimethylacetamide]

inhibition at 1 µM: 127%
IC50: < 100 nM
Compound: CN(C)C(=O)COc1ccc2c(c1)N(c1nc(-c3ccc(F)s3)nc3c1CS(=O)(=O)C3)CC2 [Compound No. 2-49, 2-((1-(2-(5-Fluorothiophen-2-yl)-6,6-dioxido-5,7-dihydrothieno[3,4-d]pyrimidin-4-yl)indolin-6-yl)oxy)-N,N-dimethylacetamide]

inhibition at 1 µM: 54%
IC50: 100 to 1000 nM
Compound: CC(C)NC(=O)COc1ccc2c(c1)N(c1nc(-c3ccc(Cl)s3)nc3c1CS(=O)(=O)C3)CC2 [Compound No. 2-54, 2-((1-(2-(5-Chlorothiophen-2-yl)-6,6-dioxido-5,7-dihydrothieno[3,4-d]pyrimidin-4-yl)indolin-6-yl)oxy)-N-isopropylacetamide]

inhibition at 1 µM: 52%
Compound: CCNC(=O)COc1ccc2c(c1)N(c1nc(-c3ccc(Cl)s3)nc3c1CS(=O)(=O)C3)CC2 [Compound No. 2-55, 2-((1-(2-(5-Chlorothiophen-2-yl)-6,6-dioxido-5,7-dihydrothieno[3,4-d]pyrimidin-4-yl)indolin-6-yl)oxy)-N-ethylacetamide]

inhibition at 1 µM: 68%
IC50: 100 to 1000 nM
Compound: CN(C(=O)COc1ccc2c(c1)N(c1nc(-c3ccc(Cl)s3)nc3c1CS(=O)(=O)C3)CC2)C1CC1 [Compound No. 2-56, 2-((1-(2-(5-Chlorothiophen-2-yl)-6,6-dioxido-5,7-dihydrothieno[3,4-d]pyrimidin-4-yl)indolin-6-yl)oxy)-N-cyclopropyl-N-methylacetamide]

inhibition at 1 µM: 89%
IC50: < 100 nM
Compound: CN(CC1CC1)C(=O)COc1ccc2c(c1)N(c1nc(-c3ccc(Cl)s3)nc3c1CS(=O)(=O)C3)CC2 [Compound No. 2-57, 2-((1-(2-(5-Chlorothiophen-2-yl)-6,6-dioxido-5,7-dihydrothieno[3,4-d]pyrimidin-4-yl)indolin-6-yl)oxy)-N-(cyclopropylmethyl)-N-methylacetamide]

inhibition at 1 µM: 70%
IC50: 100 to 1000 nM
Compound: CNC(=O)COc1ccc2c(c1)N(c1nc(-c3ccc(Cl)s3)nc3c1CS(=O)(=O)C3)CC2 [Compound No. 2-58, 2-((1-(2-(5-Chlorothiophen-2-yl)-6,6-dioxido-5,7-dihydrothieno[3,4-d]pyrimidin-4-yl)indolin-6-yl)oxy)-N-methylacetamide]
